A word on the melting point: it is the temperature, or range, at which the solid turns liquid. `NC(=O)CC(NS(=O)(=O)c1cccc(F)c1)C(=O)O` (stereo not drawn) showed a melting point of 173 to 175 °C.

Regarding `O=C1Nc2cc(SCc3ccccc3)ccc2C1=O`, the melting point lay in the range of 248 to 250 °C. For the compound `Nc1ccccc1NC(=O)c1ccccc1`, the melting point lay within 149 to 151 °C.

Regarding `O=C(CCCl)Nc1ccc([N+](=O)[O-])cc1`, the melting point fell in the range of 171 to 173 °C. As for `NNC(=O)c1cc(-c2ccco2)nc2ccccc12`, the melting point is 219 to 221 °C. Compound `O=c1[nH]c(-c2ccccc2F)cs1` displayed a melting point of 187 to 189 °C.

`Cc1nn(CCO)c(N)c1C` showed a melting point of 129 to 131 °C.

As to `CC1=C(C(=O)Nc2ccccc2)C2(CCCCC2)C(C#N)=C(S)N1`, the melting point was 238 to 240 °C. Turning to `Cc1ccc(-n2c(C)ccc2C)cc1N`, the melting point fell in the range of 83 to 85 °C. The compound `OC1CCc2cc(Br)ccc21` (stereo not drawn) came in with a melting point of 69 to 71 °C.

Regarding `CN(C)c1ccc(C(=N)N)c(Cl)c1`, the melting point is 148 to 150 °C. The value for `CC(C)(C)OC(=O)NC(CN)CN` was 58 to 60 °C; that for `Nc1ncc(-c2ccccc2)[nH]1` was 139 to 141 °C.

Regarding `Cc1cc(Br)cc(C)c1C#N`, the melting point lay in the range of 68 to 70 °C. Compound `O=C(O)CSCC(=O)c1ccc(Cl)cc1` came in with a melting point of 81 to 83 °C.

For the compound `CCOC(=O)c1cnc2nccn2c1`, the melting point was in the range of 168 to 170 °C. The value for `CCN(C(C)=O)c1nc(C=O)cs1` was 121 to 123 °C; that for `O=C(O)c1ccn(-c2cccc(C(F)(F)F)c2)n1` was 155 to 157 °C. For `CN1C(=O)NC(=O)C12CCCCC2`, the melting point is 172 to 174 °C. As to `COC(=O)C(=O)CC(=O)c1ccc2c(c1)OCO2`, the melting point fell in the range of 98 to 105 °C. Turning to `O=c1cc(CCl)nc2sccn12`, the melting point lay within 180 to 182 °C. Regarding `Cc1cc([N+](=O)[O-])c(C)cc1C#N`, the melting point was 119 to 121 °C. In the case of `Cc1c(S(=O)(=O)Cl)sc2cccc(F)c12`, the melting point is 114 to 116 °C. Turning to `Cc1[nH]c(=O)c(C(=O)O)cc1-c1ccccc1`, the melting point fell in the range of 258 to 260 °C. In the case of `O=c1cc(CCl)c2c(ccc3ccccc32)o1`, the melting point lay in the range of 119 to 120 °C. Regarding `CC1CCC(=CC(=O)O)CC1` (stereo not drawn), the melting point is 61 to 63 °C. Consider `O=C(/C=C/c1ccccc1)c1ccc(Br)cc1`, for which the melting point is 104 to 106 °C.

Turning to `Nc1c(C(=O)O)ccnc1Cl`, the melting point lay within 249 to 251 °C. Turning to `CC(=O)Oc1cc(C(=O)O)cc(OC(C)=O)c1OC(C)=O`, the melting point was 163 to 165 °C. Compound `c1ccc2c(c1)CNc1ccccc1-2` had a melting point of 120 to 122 °C.

`O=C(Nc1ccc(-n2cncn2)nc1)OCC(F)(F)F`: the melting point was in the range of 192 to 194 °C.

In turn, `Cc1cc(N)n(-c2ccc(OC(F)(F)F)cc2)n1` gave a melting point of 118 to 120 °C. Compound `CC(=O)Nc1nc(C(=O)O)cs1` came in with a melting point of 299 to 301 °C. Compound `CC(=O)c1ccc(OCc2ccccc2C)cc1` displayed a melting point of 98 to 100 °C. `O=C(O)C1CC(=O)N(C2CCCC2)C1` (stereo not drawn) came in with a melting point of 136 to 138 °C. Take `NNc1ccc(S(=O)(=O)NC2CC2)cc1`: the melting point was in the range of 134 to 136 °C. Take `N#Cc1cc2ccccc2nc1Cl`: the melting point is 163 to 165 °C. `CC(C)(C)OC(=O)N1CCOCC1C(=N)NO` (stereo not drawn) yielded a melting point of 154 to 156 °C.

As for `O=C(c1ccccc1)c1ccc(F)cn1`, the melting point is 42 to 44 °C. In turn, `CC(C)(CN)C(N)=O` gave a melting point of 72 to 74 °C. For `O=C1CCC2SCCSC12` (stereo not drawn), the melting point lay in the range of 81 to 83 °C. Compound `Cn1nnnc1Sc1ccc(Br)cc1N` displayed a melting point of 148 to 150 °C.

`O=C(O)c1ccc2c(c1)NC(=O)C1CCCN21` (stereo not drawn) yielded a melting point of 250 to 252 °C. In the case of `O=C(O)c1ccccc1SC(F)(F)F`, the melting point was in the range of 120 to 122 °C. The compound `Cc1cc(F)c(C(=O)O)cc1F` yielded a melting point of 167 to 169 °C. Regarding `O=C(O)CCc1ccsc1`, the melting point lay within 54 to 58 °C. `COC(=O)c1ccc(C=O)o1` registered a melting point of 79 to 81 °C.

`Cn1c(C(=O)O)c(Cl)c2ccccc21` showed a melting point of 233 to 235 °C. For `CNC(=O)COc1ccc(O)cc1` the value was 125 to 127 °C; for `Cc1n[nH]c(C)c1C(C)CC(=O)O` (stereo not drawn), 195 to 197 °C.

In turn, `Nc1ccc(N2CCOCC2)cc1C(F)(F)F` registered a melting point of 74 to 76 °C. Regarding `N#CCC1CC2=C(CCCC2=O)O1` (stereo not drawn), the melting point lay within 104 to 106 °C.

As to `Oc1ccccc1C1=NCCN1`, the melting point was 199 to 201 °C.

`CCOc1ccc(S(=O)(=O)Nc2ccc(C(=O)O)cc2)cc1` returned a melting point of 226 to 228 °C. In the case of `CC(=O)Nc1ccc(C(N)=S)cc1`, the melting point lay in the range of 239 to 241 °C. On to `CCN(CC)c1ccc(NC(=O)CCl)cc1`, for which the melting point lay within 141 to 143 °C. Consider `O=C(Nc1nnc(C2CC2)s1)OCC(F)(F)F`, for which the melting point is 197 to 199 °C. For the compound `COc1cc(S(=O)(=O)Cl)ccc1[N+](=O)[O-]`, the melting point is 75 to 77 °C. The compound `Cn1ccnc1CC(=O)c1ccccc1` showed a melting point of 96 to 98 °C. Take `Nc1cc(F)c(N2CCCCC2)c(F)c1`: the melting point fell in the range of 70 to 72 °C.

On to `CS(=O)(=O)NCCN=C=S`, for which the melting point was in the range of 163 to 165 °C. `CCOc1cc(C=O)ccc1OCc1c(Cl)cccc1Cl` showed a melting point of 115 to 117 °C. Compound `COc1cccc(C(=O)CC#N)c1` registered a melting point of 84 to 86 °C. In turn, `O=C(O)CN1CCCS1(=O)=O` displayed a melting point of 83 to 85 °C. `CNC1CCCN(c2ccccc2)C1=O` (stereo not drawn) registered a melting point of 76 to 78 °C. Compound `CC(N)c1ccc(NC(=O)c2ccncc2)cc1` (stereo not drawn) yielded a melting point of 159 to 161 °C. With `CC(=Cc1ccc(OCc2ccccc2)c(OCc2ccccc2)c1)C(=O)O`, the melting point lay within 138 to 140 °C. In turn, `COCc1cc(C(=O)O)no1` yielded a melting point of 85 to 87 °C.

For `O=C(O)CCc1nc2ccccc2[nH]1`, the melting point was 229 to 231 °C.

For `N#Cc1ccc(-n2cnc3ccccc32)cc1`, the melting point was 135 to 137 °C. For `Brc1ccccc1Oc1ccncc1` the value was 68 to 70 °C; for `CSc1snc(O)c1C#N`, 230 to 232 °C; for `Cc1nc(S(=O)(=O)NCC(=O)O)cn1C`, 217 to 219 °C. Regarding `Nc1cc(C(=O)O)ccc1-n1cnnc1`, the melting point lay within 334 to 336 °C.

The compound `N#CCc1ccc([N+](=O)[O-])cn1` came in with a melting point of 62 to 64 °C. On to `CSc1c(F)cc(N)cc1F`, for which the melting point fell in the range of 91 to 93 °C.

The compound `Nc1cccc(CS(=O)(=O)C2CCCCC2)c1` showed a melting point of 106 to 108 °C.

On to `O=C(O)COc1ccc(Cl)c2ccccc12`, for which the melting point lay within 162 to 164 °C. For `CC(O)c1nc2ccccc2s1` (stereo not drawn) the value was 61 to 63 °C; for `O=C(O)[C@@H]1C[C@H]1c1cccnc1` (relative stereo), 124 to 126 °C; for `CC(Cc1nnc(S)o1)c1ccccc1` (stereo not drawn), 102 to 104 °C.

The compound `Cc1nn(Cc2ccccc2)c(C)c1C=O` displayed a melting point of 72 to 74 °C.

`Cc1nc(C2(NC(=O)CCl)CCCCC2)no1`: the melting point is 93 to 95 °C.

`Nc1cc(-c2ccccc2)ns1`: the melting point lay within 159 to 161 °C. The value for `CC1Nc2ccccc2NC1=O` (stereo not drawn) was 130 to 132 °C. On to `CCOc1cccc(S(N)(=O)=O)c1`, for which the melting point lay in the range of 129 to 131 °C. As to `COc1ccc(OC)c(C(C)NC(=O)C(C)Cl)c1` (stereo not drawn), the melting point lay in the range of 96 to 98 °C. `CCC(=O)Nc1ccc(C#N)cc1` displayed a melting point of 174 to 176 °C. As to `Cc1cc(O)nc(C(C)(C)C)n1`, the melting point was in the range of 177 to 179 °C.

For `Nc1ccc2c(ccn2CCN2CCOCC2)c1`, the melting point fell in the range of 102 to 104 °C. The compound `NNC(=O)c1ccc(NS(=O)(=O)c2cccc([N+](=O)[O-])c2)cc1` displayed a melting point of 80 to 82 °C. Regarding `CC(C)(C)OC(=O)NC(CCS(C)(=O)=O)C(=O)O` (stereo not drawn), the melting point was in the range of 99 to 101 °C. `CC(C)(N)c1nnn[nH]1` yielded a melting point of 251 to 253 °C. `Cc1ccccc1CC(=O)Nc1ccc(C(=O)O)c(O)c1` had a melting point of 222 to 224 °C.

As for `CCCSc1ccc([N+](=O)[O-])c(N)c1`, the melting point was 71 to 74 °C. For `CC(C)NC(=O)c1ccc(N)cc1`, the melting point lay in the range of 149 to 151 °C. `CCNc1ccc(S(=O)(=O)N(C)C)cc1N`: the melting point was 161 to 163 °C. Compound `Cc1cc2ncn(Cc3ccc(Cl)cc3)c2cc1C` registered a melting point of 143 to 145 °C. On to `O=C(O)Cc1csc(NC(=O)c2ccccc2F)n1`, for which the melting point lay within 204 to 206 °C. `Sc1nnc(COc2ccc(Cl)cc2)n1Cc1ccccc1` registered a melting point of 211 to 213 °C. Turning to `CC(C)CCNC(=O)CC(=O)NCCC(C)C`, the melting point was 69 to 71 °C. The compound `O=C(O)c1cccc(C(=O)N2CCCC2)n1` gave a melting point of 125 to 127 °C. `NCC(O)c1ccc(OC(F)F)cc1` (stereo not drawn) displayed a melting point of 54 to 56 °C.

Consider `CCNC(=O)NC1CCC(O)CC1` (stereo not drawn), for which the melting point lay in the range of 36 to 39 °C. Regarding `Nc1cc(Br)ccc1-n1cccn1`, the melting point lay in the range of 69 to 71 °C.

Consider `CCC(=O)Nc1cccc(N)c1C`, for which the melting point was in the range of 116 to 118 °C. Take `COc1ccc(C=O)cc1OCC(C)C`: the melting point fell in the range of 40 to 42 °C.

With `Sc1ncc(-c2ccc(Br)cc2)[nH]1`, the melting point lay within 210 to 212 °C. Turning to `Cc1cc(C(=O)Cl)sc1C`, the melting point was in the range of 59 to 61 °C.

Turning to `COC(=O)COc1ccc(N)c2ccccc12`, the melting point fell in the range of 83 to 85 °C. As to `CC(C)(C)OC(=O)N1CC2CCC(O)C2C1` (stereo not drawn), the melting point lay in the range of 61 to 63 °C. In the case of `Nc1ccc(S(=O)(=O)N2CCOCC2)cc1N`, the melting point lay in the range of 169 to 171 °C. As to `Nc1ccc(NC(=O)c2cccs2)cc1`, the melting point was 166 to 168 °C.

The compound `CN1C(=O)CCC(C(=O)O)C1c1cnn(C)c1` (stereo not drawn) gave a melting point of 225 to 227 °C.

Consider `CC(=O)Nc1cccc(N)c1C`, for which the melting point was in the range of 142 to 144 °C. `O=C(O)COc1cc(Cl)ccc1Cl` returned a melting point of 146 to 148 °C. In the case of `O=C(O)c1cccc(CS(=O)(=O)c2ccccc2)c1`, the melting point fell in the range of 194 to 196 °C. The value for `Nc1c(Cl)ncnc1N1CCCC1` was 103 to 105 °C; that for `Cc1cc(N)n(C)c(=O)c1` was 192 to 194 °C. Consider `O=C1CCOc2ccc(Br)cc21`, for which the melting point was in the range of 73 to 75 °C.

`Cn1nc(C=O)cc1-c1cccs1` registered a melting point of 76 to 78 °C. For `O=C(O)CC(Br)C(=O)c1cccs1` (stereo not drawn) the value was 125 to 127 °C.

Consider `CCOC(=O)c1cc(F)c(F)cc1N`, for which the melting point fell in the range of 82 to 84 °C.

The record behind these values is a melting point compilation (Tetko et al.).
